Measurements as given in patent US8497263B2, “Pyrrolinone derivative and pharmaceutical composition comprising the same” (Shionogi & Co., Ltd., priority 2007, dated 2013).

What was measured:
[1] = target: T1, human P2X3 receptor (Homo sapiens, UniProt P56373); assay: Inhibition of ATP-induced calcium fluorescence (Fluo-3, FDSS 3000) in C6BU-1 cells stably expressing human P2X3 receptor; format: cell-based; settings: C6BU-1 cell transfected with human P2X3 receptor gene; 40 nM ATP solution; Fluo-3 fluorescence intensity
T1 construct: expressed in transfected cells
T1 sequence (P56373 1-397): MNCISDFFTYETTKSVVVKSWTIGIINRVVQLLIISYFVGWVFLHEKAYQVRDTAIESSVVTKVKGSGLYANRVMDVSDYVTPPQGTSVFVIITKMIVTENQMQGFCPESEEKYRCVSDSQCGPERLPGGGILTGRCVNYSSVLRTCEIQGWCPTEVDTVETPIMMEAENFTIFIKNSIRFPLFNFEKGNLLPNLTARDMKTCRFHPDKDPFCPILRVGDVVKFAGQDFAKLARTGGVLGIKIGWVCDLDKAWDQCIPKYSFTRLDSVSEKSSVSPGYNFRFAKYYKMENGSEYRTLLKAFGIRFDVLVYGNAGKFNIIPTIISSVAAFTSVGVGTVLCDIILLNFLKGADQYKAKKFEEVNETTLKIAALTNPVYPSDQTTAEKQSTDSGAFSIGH
Procedure: Stably expressing cell line (C6BU-1 cell transfected with human P2X3 receptor gene (GenBank accession number Y07683)) was used. The cells were seeded in a 96-well microtiter plate at a concentration of 8000 cells/well and cultured in the medium (8.3% fetal bovine serum, 8.3% horse serum, 1% antibiotic and antifungal in DMEM) for one day at 37° C. under 5% carbon dioxide atmosphere. The medium was replaced with 4 μM Fluo-3-AM solution (pH7.5) containing 20 mM HEPES, 137 mM NaCl, 2.7 mM KCl, 0.9 mM MgCl2, 5.0 mM CaCl2, 5.6 mM D-glucose, 2.5 mM probenecid, 10% BSA, and 0.08% Pluronic F-127, and incubated at 37° C. under 5% dioxide carbon atmosphere for one hour. The plate was washed with washing buffer (20 mM HEPES, 137 mM NaCl, 2.7 mM KCl, 0.9 mM MgCl2, 5.0 mM CaCl2, 5.6 mM D-glucose, 2.5 mM probenecid, pH7.5), and each well was added with 40 μL of this buffer. The plate was placed in High-Throughput Screening System FDSS 3000 (Hamamatsu Photonics K.K.). Measurement of fluorescence intensity by FDSS 3000 was started, and 40 μL of DMSO solutions containing different concentrations of the test compound as prepared by dilution with dilution buffer (20 mM HEPES, 137 mM NaCl, 2.7 mM KCl, 0.9 mM MgCl2, 5.0 mM CaCl2, 5.6 mM D-glucose, 2.5 mM probenecid, 0.1% Pluronic F-127, pH7.5) were dispensed to each well through the built-in automatic dispenser. Five minutes after, 40 nM ATP solution (50 μL) prepared by dilution with the dilution buffer was dispensed through the built-in automatic dispenser, and the measurement of fluorescence intensity was continued for 3 min. For each well, the specific maximum fluorescence intensity was calculated as the ratio of the maximum fluorescence intensity after addition of the ATP solution to the fluorescence intensity at the starting of the measurement. […] FDSS software (Hamamatsu Photonics K.K.) was used for calculation of the specific maximum fluorescence intensity. IC50 was calculated using Microsoft™ Excel™ (Microsoft Corporation) and XLfit™ (ID Business Solutions Ltd.).

| SMILES | IC50 [1] | melting point |
| --- | --- | --- |
| COc1ccccc1C1c2c(C(C)(C)C)n[nH]c2C(=O)N1c1ccc(-c2cc(NC(=O)OC(C)(C)C)no2)cc1 (stereo not drawn) [II-193] | 2270 nM | – |
| COc1ccc(C(=O)C2C(=O)C(=O)N(c3ccc(C(=O)OC(C)C)cc3)C2c2ccccc2)cc1 (stereo not drawn) [Example I-21] | 160 nM | – |
| CC(C)(C)c1n[nH]c2c1C(C1CCCCC1)N(c1ccc(-c3ccon3)cc1)C2=O (stereo not drawn) [Example I-96, 3-tert-butyl-4-cyclohexyl-5-(4-isoxazol-3-ylphenyl)-4,5-dihydro-1H-pyrrolo[3,4-c]pyrazol-6-one] | 920 nM | 251 to 252 °C |
| CCOC(=O)c1ccc(N2C(=O)C(O)=C(C(=O)c3ccc(OC)cc3)C2C(C)C)cc1 (stereo not drawn) [Example I-20] | 140 nM | – |
| COc1ccc(C(=O)C2=C(O)C(=O)N(c3ccc(OC(F)(F)F)cc3)C2c2ccc(F)cc2)cc1 (stereo not drawn) [Example I-48] | 970 nM | 241 to 244 °C |
| CCOC(=O)c1csc(N2C(=O)C(O)=C(C(=O)c3ccc(OC)cc3)C2c2ccccc2)n1 (stereo not drawn) [Example I-52] | 1270 nM | – |
| CCOC(=O)c1ccc(N2C(=O)C(=O)C(C(C)=O)C2c2ccccc2)cc1 (stereo not drawn) [Example I-72] | 4790 nM | – |
| COc1ccc(C(=O)C2=C(O)C(=O)N(c3ccc(Cl)cc3)C2c2ccc(F)cc2)cc1 (stereo not drawn) [Example I-66] | 3460 nM | – |
| CCOC(=O)c1ccc(N2C(=O)C(O)=C(C(=O)c3cccn3C)C2c2ccccc2)cc1 (stereo not drawn) [Example I-57] | 1530 nM | – |
| CCCCC(=O)C1=C(O)C(=O)N(c2ccc(-c3ccon3)cc2)C1c1ccccc1OC (stereo not drawn) [II-9] | 860 nM | – |
| COc1ccc(C(=O)C2=C(O)C(=O)N(c3ccc(C#N)cc3)C2c2ccccc2)cc1 (stereo not drawn) [Example I-76] | 6480 nM | – |
| COc1ccc(C(=O)C2=C(O)C(=O)N(c3nc(-c4ccncc4)cs3)C2C2CCCCC2)cc1 (stereo not drawn) [II-95] | 710 nM | – |
| COc1ccccc1C1C(C(=O)C(C)(C)CO)=C(O)C(=O)N1c1ccc(-c2ccon2)cc1 (stereo not drawn) [II-129] | 740 nM | – |
| COc1ccccc1C1C(C(=O)CCOCc2ccccc2)=C(O)C(=O)N1c1ccc(-c2ccon2)cc1 (stereo not drawn) [II-85] | 2520 nM | – |
| COc1ccc(C(=O)C2=C(O)C(=O)N(c3ccc(C4=NCCO4)cc3)C2c2ccc(F)cc2)cc1 (stereo not drawn) [Example I-69] | 3780 nM | 189 to 192 °C |
| COc1ccccc1C1c2c(CCOCc3ccccc3)n[nH]c2C(=O)N1c1ccc(-c2ccon2)cc1 (stereo not drawn) [II-87] | 1320 nM | – |
| CCOC(=O)c1ccc(N2C(=O)C(O)=C(C(=O)C(C)(C)C)C2c2ccccc2)cc1 (stereo not drawn) [Example I-28] | 260 nM | – |
| COc1ccccc1C1c2c(C(C)(C)C)n[nH]c2C(=O)N1c1ccc(-c2cc(C(=O)N(C)C)no2)cc1 (stereo not drawn) [II-172] | 2000 nM | – |
| COc1ccc(C2NC(=O)c3[nH]nc(-c4ccc(C)cc4)c32)cc1OC (stereo not drawn) [Example I-124] | 22000 nM | – |
| CO/N=C/c1ccc(N2C(=O)c3[nH]nc(-c4ccc(OC)cc4)c3C2c2ccccc2OC)cc1 (stereo not drawn) [II-13] | 570 nM | – |

| SMILES | IC50 [1] | melting point |
| --- | --- | --- |
| COc1ccc(C(=O)C2=C(O)C(=O)N(c3ccc(C(=O)N(C)C)cc3)C2c2ccccc2)cc1 (stereo not drawn) [Example I-74] | 5920 nM | – |
| CCOC(=O)c1ccc(N2C(=O)C(O)=C(C(=O)C3CCC3)C2c2ccccc2)cc1 (stereo not drawn) [Example I-53] | 1280 nM | – |
| COc1ccc(-c2n[nH]c3c2C(c2ccccc2)N(c2ccc(C(=O)N(C)C)cc2)C3=O)cc1 (stereo not drawn) [II-106] | 2080 nM | – |
| CCOC(=O)c1ccc(N2C(=O)C(O)=C(C(=NOC)c3ccc(OC)cc3)C2c2ccccc2)cc1 (stereo not drawn) [II-17] | 305 nM | – |
| COc1ccccc1C1C(C(=O)C(C)=O)=C(O)C(=O)N1c1ccc(-c2ccon2)cc1 (stereo not drawn) [II-123] | 2090 nM | – |
| CCC(CC)C1C(C(=O)c2ccc(C(=O)NCCO)cc2)=C(O)C(=O)N1c1ccc(-c2noc(C)n2)cc1 (stereo not drawn) [II-183] | 32 nM | – |
| C#Cc1ccc(N2C(=O)C(O)=C(C(=O)c3ccc(OC)cc3)C2c2ccc(F)cc2)cc1 (stereo not drawn) [II-57] | 1680 nM | – |
| CCOC(=O)Cc1ccc(N2C(=O)C(O)=C(C(=O)c3ccc(OC)cc3)C2c2ccccc2)cc1 (stereo not drawn) [Example I-79] | 8950 nM | – |
| CCCCC(=O)C1=C(O)C(=O)N(c2ccc(C(=O)OCC)cc2)C1c1ccccc1 (stereo not drawn) [Example I-49] | 1020 nM | – |
| COc1ccc(C(=O)C2=C(O)C(=O)N(c3ccc(-c4nc(C)no4)cc3)C2c2ccc(F)cc2)cc1 (stereo not drawn) [Example I-25] | 180 nM | 236 to 239 °C |
| COc1ccccc1C1c2c(C3CCC3)n[nH]c2C(=O)N1c1ccc(F)cc1 (stereo not drawn) [Example I-260] | 5630 nM | – |
| CCOC(=O)c1ccc(N2C(=O)C(=O)C(C(=O)c3ccc(OC)cc3)C2C2CCCCC2)cc1 (stereo not drawn) [Example I-2] | 10 nM | 252 to 255 °C |
| COc1ccc(-c2n[nH]c3c2C(c2ccccc2OC)N(CCc2ccc(F)cc2)C3=O)cc1 (stereo not drawn) [Example I-278] | 1400 nM | – |
| O=C1c2[nH]nc(-c3ccc(Cl)cc3)c2C(c2ccc([N+](=O)[O-])cc2)N1c1ccccn1 (stereo not drawn) [Example I-118] | 17800 nM | – |
| CC(=O)Nc1ccc(-c2n[nH]c3c2C(C2CCCCC2)N(c2ccc(-c4ccon4)cc2)C3=O)cc1 (stereo not drawn) [II-202] | 1620 nM | – |
| O=C(C1=C(O)C(=O)N(c2ccc(-c3ccon3)cc2)C1C1CCCCC1)c1ccc([N+](=O)[O-])cc1 (stereo not drawn) [II-98] | 70 nM | – |
| COc1ccccc1C1c2c(-c3ccc(C)cc3)n[nH]c2C(=O)N1c1ccc(F)cc1 (stereo not drawn) [Example I-95] | 560 nM | – |
| Nc1ccc(C(=O)C2=C(O)C(=O)N(c3ccc(-c4ccon4)cc3)C2C2CCCCC2)cc1 (stereo not drawn) [II-130] | 130 nM | – |
| COc1cccc(C2c3c(C)n[nH]c3C(=O)N2c2ccc(Br)cc2)c1 (stereo not drawn) [Example I-122] | 19300 nM | – |
| COc1ccccc1C1C(C(=O)C(C)(C)C)=C(O)C(=O)N1c1ccc(C2=NCCS2)cc1 (stereo not drawn) [II-29] | 590 nM | – |

| SMILES | IC50 [1] | melting point |
| --- | --- | --- |
| O=C(C1=C(O)C(=O)N(c2ccc(-c3ccon3)cc2)C1C1CCCCC1)c1cccnc1 (stereo not drawn) [II-75] | 370 nM | – |
| CCOC(=O)c1ccc(N2C(=O)C(=NOC)C(C(=O)c3ccc(OC)cc3)C2c2ccccc2)cc1 (stereo not drawn) [II-16] | 1510 nM | – |
| CCOc1ccc(C(=O)C2C(=O)C(=O)N(c3ccc(OC)cc3)C2c2ccc(Cl)cc2)cc1 (stereo not drawn) [Example I-88] | 15400 nM | – |
| CCOC(=O)c1ccc(N2C(=O)C(O)=C(C(=O)c3cccs3)C2c2ccccc2)cc1 (stereo not drawn) [Example I-36] | 380 nM | – |
| C#Cc1ccc(N2C(=O)c3[nH]nc(C(C)(C)C)c3C2c2ccc(F)cc2)cc1 (stereo not drawn) [II-64] | 1310 nM | – |
| COc1ccc(/C(N)=C2/C(=O)C(=O)N(c3ccc(C(F)(F)F)cc3)C2c2ccccc2)cc1 (stereo not drawn) [II-22] | 2310 nM | – |
| COc1ccc(C(=O)C2=C(O)C(=O)N(CCc3ccc(F)cc3)C2c2ccccc2OC)cc1 (stereo not drawn) [Example I-273] | 2200 nM | – |
| CC(=O)Nc1ccc(C(=O)C2=C(O)C(=O)N(c3ccc(-c4ccon4)cc3)C2C2CCCCC2)cc1 (stereo not drawn) [II-201] | 10 nM | – |
| COC(=O)c1ccc(C(=O)C2=C(O)C(=O)N(c3ccc(C(F)(F)F)cc3)C2c2ccccc2)cc1 (stereo not drawn) [Example I-24] | 180 nM | – |
| CCOC(=O)c1ccc(N2C(=O)C(=O)C(C(=O)c3ccc(OC)cc3)C2c2ccccc2)cc1 (stereo not drawn) [Example I-4] | 20 nM | – |
| COc1ccccc1C1c2c(-c3ccc(F)cc3)n[nH]c2C(=O)N1c1ccc(F)cc1 (stereo not drawn) [II-5] | 1370 nM | – |
| COc1ccccc1C1C(C(=O)C2CC2)=C(O)C(=O)N1c1ccc(-c2ccon2)cc1 (stereo not drawn) [II-45] | 1070 nM | – |
| COc1ccccc1C1c2c(C(C)(C)C)n[nH]c2C(=O)N1c1ccc(-c2cc(CO)no2)cc1 (stereo not drawn) [II-171] | 950 nM | – |
| CC(=O)c1ccc(N2C(=O)C(=O)C(C(=O)c3ccc(Cl)cc3)C2c2ccc(Br)cc2)cc1 (stereo not drawn) [Example I-62] | 1960 nM | – |
| CCOC(=O)c1ccc(N2C(=O)C(O)=C(C(=O)c3ccco3)C2c2ccccc2)cc1 (stereo not drawn) [Example I-77] | 8010 nM | – |
| COc1ccc(-c2n[nH]c3c2C(C2CC2)N(c2ccc(-c4ccon4)cc2)C3=O)cc1 (stereo not drawn) [II-217] | 1870 nM | – |
| CCOC(=O)c1ccc(N2C(=O)C(=O)C(/C(=N\O)c3ccc(OC)cc3)C2c2ccccc2)cc1 (stereo not drawn) [Example I-44] | 560 nM | – |
| COc1ccc(C(=O)C2=C(O)C(=O)N(c3nc4ccc(Cl)cc4s3)C2C2CCCCC2)cc1 (stereo not drawn) [II-181] | 330 nM | – |
